Measurements from patent US5981521A, “Tetrahydroisoquinoline derivatives as LHRH antagonists” (Abbott Laboratories, priority 1998, dated 1999).
Counter-ions that a name gives are not always drawn.

Molecular target: T1, LHRH rat pituitary receptor (Rattus norvegicus, UniProt P30969)
T1 construct: from tissue; host or cells: rat pituitary
T1 sequence (P30969 1-327): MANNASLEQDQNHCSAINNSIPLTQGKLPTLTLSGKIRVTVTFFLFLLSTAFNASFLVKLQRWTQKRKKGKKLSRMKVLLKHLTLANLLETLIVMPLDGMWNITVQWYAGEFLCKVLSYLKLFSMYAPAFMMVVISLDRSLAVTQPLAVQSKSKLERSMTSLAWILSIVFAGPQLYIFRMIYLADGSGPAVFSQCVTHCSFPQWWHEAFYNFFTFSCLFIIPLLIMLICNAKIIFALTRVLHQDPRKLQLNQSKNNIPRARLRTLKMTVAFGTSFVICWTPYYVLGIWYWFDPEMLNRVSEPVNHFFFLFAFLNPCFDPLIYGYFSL
Assay: LHRH rat pituitary receptor binding
Protocol: Representative compounds of the present invention were evaluated in vitro for potency against for LHRH rat pituitary receptor binding [pK, ]. Methods for the assay procedures are 10 described in […] al. J Med. Chem., 32: 2340-2344 (1989). Values of pK, are the negative logarithms of the equilibrium dissociation constant of the particular antagonist test compound for the receptor binding. […] Leuprolide LHRH agonist, disclosed and claimed in U.S. Pat. No. 4,005, 063, has the structure 5-oxo-[…].

[1] = Table 1: compounds of formula (V), by n and R1
[2] = Table 2: compounds of formula (VI), by isoquinolinyl moiety R
[3] = Table 3: compounds of formula (VII), by substituent R'

Compound	Ki [1] [nM]	Ki [2] [nM]	further results
COc1cc2c(cc1OC)C(c1ccccc1)N(CCCC(CCCNC(=O)CCc1ccc(F)cc1)(c1ccccc1)c1ccccc1)CC2 (stereo not drawn) [Example 7, 7-[N-3-(4-Fluorophenyl)propionyl]amino-1-[N-(1,2,3,4-tetrahydro-1-phenyl-6,7-dimethoxyisoquinolinyl)]1-4.4-diphenylheptane hydrochloride]	45.7	–	–
COc1cc2c(cc1OC)C(CCCCNCCC(C)C)N(CCCC(CCCNC(=O)CCc1ccc(F)cc1)(c1ccccc1)c1ccccc1)CC2 (stereo not drawn) [Example 30, 7-[N-3-(4-Fluorophenyl)propionyl]amino-1-[N-(1,2,3,4-tetrahydro-1-(4-N-isopentylamino)butyll-6,7-dimethoxyisoquinolinyl)1-4.4-diphenylheptanedihydrochloride]	–	–	pKI [1]: 8.00
CC1c2cc(F)ccc2CCN1CCCC(CCCNC(=O)CCc1ccc(F)cc1)(c1ccccc1)c1ccccc1 (stereo not drawn) [Example 53, 7-[N-3-(4-Fluorophenyy)propionyl]-1-[N-(1,2,3,4-tetrahydro-1-methyl-7-fluoro-isoquinolinyl)l-4,4-diphenylheptane hydrochloride]	–	14.5	–
COc1cc2c(cc1OC)C(CN)N(CCCC(CCCNC(=O)CCc1ccc(F)cc1)(c1ccccc1)c1ccccc1)CC2 (stereo not drawn) [Example 22, 7-[N-3-(4-Fluorophenyl)propionyl]amino-1-[N-(1,2.3,4-tetrahydro-1-aininomethyl-6,7-dimethoxyisoguinolinyl)1-4.4-diphenylheptanedihydrochloride]	–	–	pKI [1]: 9.24
COc1cc2c(cc1OC)C(C1CCCCC1)N(CCCC(CCCNC(=O)CCc1ccc(F)cc1)(c1ccccc1)c1ccccc1)CC2 (stereo not drawn) [Example 10, 7-[N-3-(4-Fluorophenyl)propionyl]amino-1-[N-(1,2,3,4-tetrahydro-1-cyclohexyl-6,7-dimethoxyisoguinolinyl)1-4.4-diphenylheptane hydrochloride]	2.88	–	–
COc1cc2c(cc1OC)C(C1CCCC1)N(CCCC(CCCNC(=O)CCc1ccc(F)cc1)(c1ccccc1)c1ccccc1)CC2 (stereo not drawn) [Example 8, 7-[N-3-(4-Fluorophenyl)propionyl]amino-1-[N-(1,2,3,4-tetrahydro-1-cyclopentyl-6.7-dimethoxyisoguinolinyl)]-4,4-diphenylheptane hydrochloride]	0.389	–	–
CC(=O)Oc1cc2c(cc1OC(C)=O)C(C)N(CCCC(CCCNC(=O)CCc1ccc(F)cc1)(c1ccccc1)c1ccccc1)CC2 (stereo not drawn) [Example 58, 7-[N-3-(4-Fluorophenyl)propionyl]-1-[N-(1,2,3,4-tetrahydro-1-methYI-6,7-diacetoxyisoquinolinyl)]-4,4-dilhenylheptane]	–	12.3	–
COc1cc2c(cc1OC)C(C1CCC1)N(CCCC(CCCNC(=O)CCc1ccc(F)cc1)(c1ccccc1)c1ccccc1)CC2 (stereo not drawn) [Example 9, 7-[N-3-(4-Fluorophenyl)propionyl]amino-1-[N-(1,2,3,4-tetrahydro-1-cyclobutyl-6,7-dimethoxnisoguinolinyl)]1-4,4-diphenalhentane hydrochloride]	–	–	pKI [1]: 10.07
COc1cc2c(cc1OC)C(C)N(CCCC(CCCNC(=O)CCc1ccc(F)c(Cl)c1)(c1ccccc1)c1ccccc1)CC2 (stereo not drawn) [Example 76]	–	–	Ki [3]: 3.98 nM
CC(=O)Nc1ccc2c(c1)C(C)N(CCCC(CCCNC(=O)CCc1ccc(F)cc1)(c1ccccc1)c1ccccc1)CC2 (stereo not drawn) [Example 55, 7-[N-3-(4-Fluorophenyl)propionyl]-1-[N-(1,2,3,4-tetrahydro-l-methyl-7-acetylamino-isoquinolinyl)1-4.4-diphenylheptane hydrochloride]	–	8.71	–
CC1c2ccccc2CCN1CCCC(CCCNC(=O)CCc1ccc(F)cc1)(c1ccccc1)c1ccccc1 (stereo not drawn) [Example 47, 7-[N-3-(4-Fluorophenyl)propionyl]-1-[N-(1,2,3,4-tetrahydro-1-methylisoquinolinyl)1-4.4-diphenylheptane hydrochloride]	–	14.5	–
CC1c2cc(Cl)c(Cl)cc2CCN1CCCC(CCCNC(=O)CCc1ccc(F)cc1)(c1ccccc1)c1ccccc1 (stereo not drawn) [Example 56, 7-[N-3-(4-Fluorophenyl)propionyl]-1-[N-(1,2,3,4-tetrahydro-1-methyl-6,7-dichloro-isoquinolinyl)1-4.4-diphenylheptane hydrochloride]	–	3.72	–
COc1cc2c(cc1OC)C(C)N(CCCC(CCCNC(=O)CCc1ccc(Cl)c(Cl)c1)(c1ccccc1)c1ccccc1)CC2 (stereo not drawn) [Example 73]	–	–	Ki [3]: 2.19 nM
COc1ccc2c(c1)C(C)N(CCCC(CCCNC(=O)CCc1ccc(F)cc1)(c1ccccc1)c1ccccc1)CC2 (stereo not drawn) [Example 51, 7-[N-3-(4-Fluorophenylpropionyl]-1-FA-f 1,2,3,4-tetrahydro-1-methyl-7-methoxy-isoguinolinyl)1-4.4-diphen%-lheptanehydrochloride]	–	1.05	–
COc1cc2c(cc1OC)C(C)N(CCCC(CCCNC(=O)CCc1ccccc1)(c1ccccc1)c1ccccc1)CC2 (stereo not drawn) [Example 72]	–	–	Ki [3]: 3.16 nM
COc1cc2c(cc1Br)CCN(CCCC(CCCNC(=O)CCc1ccc(F)cc1)(c1ccccc1)c1ccccc1)C2C1CCC1 (stereo not drawn) [Example 64, 7-[N-3-(4-Fluorophenyl)propionyl]amino-1-[N-(1,2,3,4-tetrahydro-1-cyclobutyl-6-bromo-7-methoxyisoquinolinyl)l-4,4-diiphenylheptane hydrochloride]	–	6.03	–
CC1c2cc(F)c(Cl)cc2CCN1CCCC(CCCNC(=O)CCc1ccc(F)cc1)(c1ccccc1)c1ccccc1 (stereo not drawn) [Example 57, 7-[N-3-(4-Fluorophenyl)propionyl]-1-[N-(1,2,3,4-tetrahydro-1-methyl-6-chloro-7-fluoroisoquinolinyl)1-4.4-diphenylheptane hydrochloride]	–	–	pKI [2]: 8.60
COc1cc2c(cc1OC)CN(CCCC(CCCNC(=O)CCc1ccc(F)cc1)(c1ccccc1)c1ccccc1)C(C)C2 (stereo not drawn) [Example 66, 7-[N-3-(4-Fluorophenyl)propionyl]-1-[N-(1,2,3,4-tetrahydro-3-mekyl-6,7-dimethoxyisoguinolinyl)]-4,4-diphenylheptane hydrochloride]	–	0.617	–
COc1cc2c(cc1OC)C(C)N(CCCC(CCCNC(=O)CCc1ccc(F)cc1)(c1ccccc1)c1ccccc1)CC2 (racemic) [Example 1, (R,S) 7-[N-3-(4-Fluorophenyl)propionyl]amino-1-[N-(1,2,3,4-tetrahydro-1-methyl-6,7-dimethoxyisoquinolinyl]1-4,4-diphenylheptane hydrochloride]	–	–	pKI [1]: 8.80
COc1ccc2c(c1)C(C)N(CCCC(CCCNC(=O)CCc1ccc(F)cc1)(c1ccccc1)c1ccccc1)C(C)C2 (stereo not drawn) [Example 68, 7-[N-3-(4-Fluorophenyl)propionyl]-1-rN-(1,2,3,4-tetrahydro-1.3-dimethyl-7-methoxyisoquinolinyl)1-4.4-diphenylheiltane hydrochloride]	–	2.51	–

Further lines, with some results ahead:

Ki [1] [nM]	Ki [2] [nM]	Compound	further results
25.1	–	COc1cc2c(cc1OC)C(CCc1ccccc1)N(CCCC(CCCNC(=O)CCc1ccc(F)cc1)(c1ccccc1)c1ccccc1)CC2 (stereo not drawn) [Example 20, 7-[N-3-(4-Fluorophenyl)propionyl]amino-1-[N-(1,2,3,4-tetrahydro-1-phenethyl-6,7-dimethoxy - isoguinolinyl)]-4,4-diphenylheptane hydrochloride]	–
100	–	COc1cc2c(cc1OC)[C@H](C)N(CCCC(CCCNC(=O)CCc1ccc(F)cc1)(c1ccccc1)c1ccccc1)CC2 [Example 3, (S) 7-[N-3-(4-Fluorophenyl)propionyl]amino-1-[N-(1,2,3,4-tetrahydro-1-methyl-6.7-dimethoxyisoquinolinyl]1-4.4-diphenylheptane hydrochloride]	–
2.95	–	COc1cc2c(cc1OC)C(c1ccc(NC(C)C)cc1)N(CCCC(CCCNC(=O)CCc1ccc(F)cc1)(c1ccccc1)c1ccccc1)CC2 (stereo not drawn) [Example 16, 7-[N-3-(4-Fluorophenyl)propionyl]amino-1-[N-(1,2,3,4-tetrahydro-1-r4-(N-isonropylamino)-phenol-6,7-dimethoxyisoguinolinyl)1-4.4-diphenylheptanedihydrochloride]	–
0.0724	–	COc1cc2c(cc1OC)C(Cc1ccc(N)cc1)N(CCCC(CCCNC(=O)CCc1ccc(F)cc1)(c1ccccc1)c1ccccc1)CC2 (stereo not drawn) [Example 21, 7-[N-3-(4-Fluorophenol)propionyl]amino-1-F(N-[1,2,3,4-tetrahydro-1-(4-aminobenzyl)-6,7-dimethoxyisoguinolinyl)1-4.4-diphenylheptanedihydrochloride]	–
2.45	–	COc1cc2c(cc1OC)C(CCCCNC(=O)c1cccnc1)N(CCCC(CCCNC(=O)CCc1ccc(F)cc1)(c1ccccc1)c1ccccc1)CC2 (stereo not drawn) [Example 35, 7-[N-3-(4-Fluorophenyl)propionyl]amino-1-[N-(1,2,3,4-tetrahydro-1-(4-N-nicotinylamino)-butyl-6,7-dimethoxyisoguinolinyll-4,4-diphenylheptane hydrochloride]	–
1.58	–	COc1cc2c(cc1OC)C(C(C)C)N(CCCC(CCCNC(=O)CCc1ccc(F)cc1)(c1ccccc1)c1ccccc1)CC2 (stereo not drawn) [Example 6, 7-[N-3-(4-Fluorophenylpropionyl]amino-1-[N-(1,2,3,4-tetrahydro-1-isopropyl-6.7-dimethoxyisoquinolinyl)]1-4.4-diphenylheptane hydrochloride]	–
0.135	–	COc1cc2c(cc1OC)C(C1CC1)N(CCCC(CCCNC(=O)CCc1ccc(F)cc1)(c1ccccc1)c1ccccc1)CC2 (stereo not drawn) [Example 4, 7-[N-3-(4-Fluorolphenyl)Propionyl]1-[N-(1,2,3,4-tetrahydro-1-cyclopropyl-6.7-dimethoxyisoquinolinyl)]-4,4-diphenylheptane hydrochloride]	–
